Source: ChEMBL document CHEMBL5291721, “A preclinical secondary pharmacology resource illuminates target-adverse drug reaction associations of marketed drugs” (Nat Commun, 2023)

Tests used:
[1] = molecular target: Synaptic vesicular amine transporter (Rattus norvegicus, UniProt Q01827); type: functional
[2] = molecular target: Gamma-aminobutyric acid type B receptor subunit 1 (Homo sapiens, UniProt Q9UBS5)
[3] = molecular target: Voltage-dependent L-type calcium channel subunit alpha-1C (Homo sapiens, UniProt Q13936); type: functional, cell-based
[4] = molecular target: T1, Androgen receptor (Rattus norvegicus, UniProt P15207)
T1 sequence (P15207 whole entry): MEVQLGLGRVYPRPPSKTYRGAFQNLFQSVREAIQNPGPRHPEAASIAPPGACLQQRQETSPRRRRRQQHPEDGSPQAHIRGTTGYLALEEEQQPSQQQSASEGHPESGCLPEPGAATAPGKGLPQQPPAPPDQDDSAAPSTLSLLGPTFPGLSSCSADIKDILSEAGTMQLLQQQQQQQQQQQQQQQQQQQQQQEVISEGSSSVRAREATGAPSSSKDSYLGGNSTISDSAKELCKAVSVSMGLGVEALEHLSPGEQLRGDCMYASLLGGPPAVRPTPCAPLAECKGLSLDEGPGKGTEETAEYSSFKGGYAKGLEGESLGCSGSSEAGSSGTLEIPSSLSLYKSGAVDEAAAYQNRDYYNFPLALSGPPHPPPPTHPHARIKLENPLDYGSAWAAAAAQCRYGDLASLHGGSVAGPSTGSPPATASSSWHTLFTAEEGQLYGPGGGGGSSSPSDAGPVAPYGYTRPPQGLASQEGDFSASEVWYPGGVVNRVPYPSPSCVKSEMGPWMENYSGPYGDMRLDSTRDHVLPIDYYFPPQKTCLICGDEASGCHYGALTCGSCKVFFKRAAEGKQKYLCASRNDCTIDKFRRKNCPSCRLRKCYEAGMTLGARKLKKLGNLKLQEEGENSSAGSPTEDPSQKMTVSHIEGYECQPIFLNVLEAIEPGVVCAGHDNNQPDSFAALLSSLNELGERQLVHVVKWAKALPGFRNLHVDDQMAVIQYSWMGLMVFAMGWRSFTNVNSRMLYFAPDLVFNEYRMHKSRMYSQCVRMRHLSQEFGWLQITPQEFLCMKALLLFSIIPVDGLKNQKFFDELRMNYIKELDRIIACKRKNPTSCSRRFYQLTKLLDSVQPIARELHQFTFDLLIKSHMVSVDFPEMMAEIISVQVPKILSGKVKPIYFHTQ

[5] = molecular target: Cannabinoid receptor 1 (Homo sapiens, UniProt P21554); type: functional
[6] = molecular target: 5-hydroxytryptamine receptor 6 (Homo sapiens, UniProt P50406)
[7] = molecular target: Rod cGMP-specific 3',5'-cyclic phosphodiesterase subunit alpha (Homo sapiens, UniProt P16499); type: functional
[8] = molecular target: Hydroxycarboxylic acid receptor 2 (Homo sapiens, UniProt Q8TDS4)
[9] = molecular target: T2, Muscarinic acetylcholine receptor M5 (Homo sapiens, UniProt P08912)
T2 sequence (P08912 whole entry): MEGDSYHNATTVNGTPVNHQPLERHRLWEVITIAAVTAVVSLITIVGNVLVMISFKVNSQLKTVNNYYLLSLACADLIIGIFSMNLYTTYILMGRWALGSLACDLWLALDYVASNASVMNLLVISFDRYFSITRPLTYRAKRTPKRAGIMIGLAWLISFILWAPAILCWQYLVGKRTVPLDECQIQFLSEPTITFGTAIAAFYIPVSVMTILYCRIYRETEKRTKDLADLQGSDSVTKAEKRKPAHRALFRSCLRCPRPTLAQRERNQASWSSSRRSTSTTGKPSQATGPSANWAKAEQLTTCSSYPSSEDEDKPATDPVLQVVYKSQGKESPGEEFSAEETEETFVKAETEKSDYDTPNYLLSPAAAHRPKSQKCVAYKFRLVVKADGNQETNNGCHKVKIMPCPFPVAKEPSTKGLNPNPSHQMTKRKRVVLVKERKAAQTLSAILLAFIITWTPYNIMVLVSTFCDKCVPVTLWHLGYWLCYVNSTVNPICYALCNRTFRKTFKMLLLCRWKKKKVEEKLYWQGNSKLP

[10] = molecular target: D(1B) dopamine receptor (Homo sapiens, UniProt P21918)
[11] = molecular target: 5-hydroxytryptamine receptor 7 (Homo sapiens, UniProt P34969)
[12] = molecular target: Sodium channel protein type 5 subunit alpha (Homo sapiens, UniProt Q14524); type: functional, cell-based
[13] = molecular target: T1, Androgen receptor; type: functional
[14] = molecular target: Acetylcholinesterase (Homo sapiens, UniProt P22303); type: functional
[15] = molecular target: T3, Thromboxane A2 receptor (Homo sapiens, UniProt P21731); type: functional, cell-based
T3 sequence (P21731 whole entry): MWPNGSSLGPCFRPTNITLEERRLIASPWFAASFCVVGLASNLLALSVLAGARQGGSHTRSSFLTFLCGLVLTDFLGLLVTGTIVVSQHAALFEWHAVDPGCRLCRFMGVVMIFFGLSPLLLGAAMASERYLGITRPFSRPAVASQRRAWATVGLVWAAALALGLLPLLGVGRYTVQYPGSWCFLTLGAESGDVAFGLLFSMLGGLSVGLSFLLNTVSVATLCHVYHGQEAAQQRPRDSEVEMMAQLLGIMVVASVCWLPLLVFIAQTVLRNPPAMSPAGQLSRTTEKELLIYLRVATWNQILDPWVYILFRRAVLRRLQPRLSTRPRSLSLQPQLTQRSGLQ

[16] = molecular target: T3, Thromboxane A2 receptor; type: functional
Further: assay procedure not described here.

Sodium channel protein type 5 subunit alpha, sequence (Q14524 whole entry): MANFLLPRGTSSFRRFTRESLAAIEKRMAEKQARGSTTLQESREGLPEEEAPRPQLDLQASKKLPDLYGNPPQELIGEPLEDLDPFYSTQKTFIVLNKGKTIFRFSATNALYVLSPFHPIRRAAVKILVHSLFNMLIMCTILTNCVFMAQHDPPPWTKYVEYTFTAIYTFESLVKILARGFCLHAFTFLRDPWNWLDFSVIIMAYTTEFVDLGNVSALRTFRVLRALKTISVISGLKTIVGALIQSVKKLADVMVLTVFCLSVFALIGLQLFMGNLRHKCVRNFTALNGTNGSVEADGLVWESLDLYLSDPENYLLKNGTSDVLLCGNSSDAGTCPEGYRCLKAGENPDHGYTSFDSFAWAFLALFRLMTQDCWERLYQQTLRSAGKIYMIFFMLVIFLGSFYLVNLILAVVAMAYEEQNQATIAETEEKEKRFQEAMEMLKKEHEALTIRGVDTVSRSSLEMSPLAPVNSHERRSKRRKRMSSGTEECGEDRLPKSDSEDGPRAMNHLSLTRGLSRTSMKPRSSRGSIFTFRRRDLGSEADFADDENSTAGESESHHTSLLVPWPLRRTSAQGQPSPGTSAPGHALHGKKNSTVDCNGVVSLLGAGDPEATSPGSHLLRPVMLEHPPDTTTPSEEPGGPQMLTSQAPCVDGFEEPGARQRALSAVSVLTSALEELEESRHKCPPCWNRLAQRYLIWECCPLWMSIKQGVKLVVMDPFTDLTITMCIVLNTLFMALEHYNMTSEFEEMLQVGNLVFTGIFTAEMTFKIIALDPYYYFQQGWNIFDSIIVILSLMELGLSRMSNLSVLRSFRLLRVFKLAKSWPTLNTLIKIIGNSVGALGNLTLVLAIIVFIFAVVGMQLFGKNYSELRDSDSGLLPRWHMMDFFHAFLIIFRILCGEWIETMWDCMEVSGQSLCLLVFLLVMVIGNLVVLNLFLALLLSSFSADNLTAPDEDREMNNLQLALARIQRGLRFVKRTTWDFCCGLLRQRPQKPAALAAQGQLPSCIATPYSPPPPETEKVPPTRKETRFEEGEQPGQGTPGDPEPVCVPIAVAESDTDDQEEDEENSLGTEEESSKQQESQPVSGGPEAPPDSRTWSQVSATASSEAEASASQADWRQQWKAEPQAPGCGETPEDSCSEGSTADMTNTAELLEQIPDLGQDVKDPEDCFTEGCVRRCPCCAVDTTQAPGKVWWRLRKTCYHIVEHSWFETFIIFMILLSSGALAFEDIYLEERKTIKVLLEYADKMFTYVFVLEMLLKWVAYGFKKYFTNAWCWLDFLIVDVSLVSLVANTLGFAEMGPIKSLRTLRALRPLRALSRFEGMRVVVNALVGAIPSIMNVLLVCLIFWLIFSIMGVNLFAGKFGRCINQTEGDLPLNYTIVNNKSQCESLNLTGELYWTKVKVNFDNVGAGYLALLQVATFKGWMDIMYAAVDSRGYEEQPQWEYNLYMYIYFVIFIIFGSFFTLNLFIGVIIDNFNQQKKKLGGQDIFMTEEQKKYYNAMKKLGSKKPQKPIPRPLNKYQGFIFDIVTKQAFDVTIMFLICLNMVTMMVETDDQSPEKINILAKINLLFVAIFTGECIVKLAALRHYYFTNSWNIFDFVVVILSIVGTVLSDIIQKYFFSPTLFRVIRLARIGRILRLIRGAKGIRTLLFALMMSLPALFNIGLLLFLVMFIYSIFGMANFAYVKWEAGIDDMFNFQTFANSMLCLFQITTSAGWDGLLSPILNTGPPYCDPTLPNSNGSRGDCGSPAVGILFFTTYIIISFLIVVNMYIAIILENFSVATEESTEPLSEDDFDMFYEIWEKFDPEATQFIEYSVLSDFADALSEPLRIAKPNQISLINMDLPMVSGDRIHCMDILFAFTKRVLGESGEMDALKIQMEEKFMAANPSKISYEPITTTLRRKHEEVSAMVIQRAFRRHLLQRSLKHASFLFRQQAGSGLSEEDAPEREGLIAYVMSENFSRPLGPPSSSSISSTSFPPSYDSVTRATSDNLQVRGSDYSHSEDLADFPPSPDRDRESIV
Rod cGMP-specific 3',5'-cyclic phosphodiesterase subunit alpha, sequence (P16499 whole entry): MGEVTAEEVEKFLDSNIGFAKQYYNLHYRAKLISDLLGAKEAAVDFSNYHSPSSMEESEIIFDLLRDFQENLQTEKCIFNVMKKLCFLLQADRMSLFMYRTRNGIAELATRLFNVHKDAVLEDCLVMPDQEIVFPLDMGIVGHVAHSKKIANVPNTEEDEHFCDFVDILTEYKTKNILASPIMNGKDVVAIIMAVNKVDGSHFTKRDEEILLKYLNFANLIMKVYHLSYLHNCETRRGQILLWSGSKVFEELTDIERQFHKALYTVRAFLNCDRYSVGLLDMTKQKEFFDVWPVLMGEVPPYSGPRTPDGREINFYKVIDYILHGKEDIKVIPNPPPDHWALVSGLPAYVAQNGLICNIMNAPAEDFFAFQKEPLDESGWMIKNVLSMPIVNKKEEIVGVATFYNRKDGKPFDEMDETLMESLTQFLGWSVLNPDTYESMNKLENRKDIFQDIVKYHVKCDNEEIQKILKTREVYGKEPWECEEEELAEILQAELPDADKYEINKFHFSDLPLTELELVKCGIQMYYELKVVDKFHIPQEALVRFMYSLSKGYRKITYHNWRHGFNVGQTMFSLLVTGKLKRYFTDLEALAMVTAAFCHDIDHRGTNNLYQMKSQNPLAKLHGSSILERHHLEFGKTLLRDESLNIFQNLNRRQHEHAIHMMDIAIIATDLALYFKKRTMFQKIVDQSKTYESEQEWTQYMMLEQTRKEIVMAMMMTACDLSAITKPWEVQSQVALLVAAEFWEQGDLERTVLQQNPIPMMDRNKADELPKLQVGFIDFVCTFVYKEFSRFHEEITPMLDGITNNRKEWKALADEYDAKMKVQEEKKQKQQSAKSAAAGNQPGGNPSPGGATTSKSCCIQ
D(1B) dopamine receptor, sequence (P21918 whole entry): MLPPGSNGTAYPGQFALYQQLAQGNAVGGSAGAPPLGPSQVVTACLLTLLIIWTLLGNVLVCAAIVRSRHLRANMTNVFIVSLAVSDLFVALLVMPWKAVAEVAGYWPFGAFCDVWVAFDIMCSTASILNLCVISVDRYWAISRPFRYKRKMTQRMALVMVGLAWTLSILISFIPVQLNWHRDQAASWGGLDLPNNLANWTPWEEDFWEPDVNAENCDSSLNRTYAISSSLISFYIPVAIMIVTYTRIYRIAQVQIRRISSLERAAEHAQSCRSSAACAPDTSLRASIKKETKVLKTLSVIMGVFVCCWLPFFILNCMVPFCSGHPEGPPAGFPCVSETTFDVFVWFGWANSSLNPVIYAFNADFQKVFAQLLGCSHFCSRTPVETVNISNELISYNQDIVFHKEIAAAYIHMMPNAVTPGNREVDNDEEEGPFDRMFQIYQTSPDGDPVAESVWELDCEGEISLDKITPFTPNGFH
5-hydroxytryptamine receptor 7, sequence (P34969 whole entry): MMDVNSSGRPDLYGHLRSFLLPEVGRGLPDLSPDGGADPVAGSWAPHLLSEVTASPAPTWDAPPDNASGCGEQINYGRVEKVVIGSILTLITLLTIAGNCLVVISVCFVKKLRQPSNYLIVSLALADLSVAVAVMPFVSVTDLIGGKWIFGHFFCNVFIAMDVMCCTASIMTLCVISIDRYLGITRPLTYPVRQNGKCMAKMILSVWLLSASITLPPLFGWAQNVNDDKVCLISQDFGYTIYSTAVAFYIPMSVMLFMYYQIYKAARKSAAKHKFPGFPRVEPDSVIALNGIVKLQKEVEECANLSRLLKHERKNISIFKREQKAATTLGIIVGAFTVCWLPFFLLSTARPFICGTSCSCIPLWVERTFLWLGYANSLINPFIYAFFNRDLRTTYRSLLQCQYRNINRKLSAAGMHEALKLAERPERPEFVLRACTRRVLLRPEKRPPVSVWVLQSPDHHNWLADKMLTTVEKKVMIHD
Synaptic vesicular amine transporter, sequence (Q01827 whole entry): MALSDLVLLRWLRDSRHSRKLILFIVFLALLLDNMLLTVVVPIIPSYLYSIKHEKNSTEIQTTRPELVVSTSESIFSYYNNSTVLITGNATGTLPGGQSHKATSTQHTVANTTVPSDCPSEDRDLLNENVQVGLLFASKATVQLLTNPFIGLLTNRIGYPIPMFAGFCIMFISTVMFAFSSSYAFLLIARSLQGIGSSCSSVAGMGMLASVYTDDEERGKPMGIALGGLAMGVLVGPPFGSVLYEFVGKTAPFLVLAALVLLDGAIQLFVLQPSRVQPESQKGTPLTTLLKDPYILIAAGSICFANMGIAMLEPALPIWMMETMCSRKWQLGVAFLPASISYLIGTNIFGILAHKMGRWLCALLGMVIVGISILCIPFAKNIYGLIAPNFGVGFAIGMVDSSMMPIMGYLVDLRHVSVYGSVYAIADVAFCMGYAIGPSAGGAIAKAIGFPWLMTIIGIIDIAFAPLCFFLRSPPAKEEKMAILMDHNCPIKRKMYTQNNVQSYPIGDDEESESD
5-hydroxytryptamine receptor 6, sequence (P50406 whole entry): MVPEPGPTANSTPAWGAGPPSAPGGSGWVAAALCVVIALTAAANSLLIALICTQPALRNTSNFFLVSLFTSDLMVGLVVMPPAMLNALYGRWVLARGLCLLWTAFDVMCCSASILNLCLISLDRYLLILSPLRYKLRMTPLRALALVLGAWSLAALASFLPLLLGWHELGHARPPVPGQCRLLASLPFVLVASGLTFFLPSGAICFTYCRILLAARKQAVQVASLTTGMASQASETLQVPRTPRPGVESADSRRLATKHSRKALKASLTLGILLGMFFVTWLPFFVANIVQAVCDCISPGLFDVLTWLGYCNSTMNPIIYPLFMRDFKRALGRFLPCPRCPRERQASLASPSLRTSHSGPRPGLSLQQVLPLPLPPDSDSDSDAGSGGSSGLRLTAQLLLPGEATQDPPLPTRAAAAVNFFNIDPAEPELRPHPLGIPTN

Row | SMILES | AC50 [1] | AC50 [3] | AC50 [4] | AC50 [6] | AC50 [7] | AC50 [9] | AC50 [10] | AC50 [11] | AC50 [12] | other results
1 | CO[C@H]1C[C@@H]2CC[C@@H](C)[C@@](O)(O2)C(=O)C(=O)N2CCCC[C@H]2C(=O)O[C@H]([C@H](C)C[C@@H]2CC[C@@H](O)[C@H](OC)C2)CC(=O)[C@H](C)/C=C(\C)[C@@H](O)[C@@H](OC)C(=O)[C@H](C)C[C@H](C)/C=C/C=C/C=C/1C [SIROLIMUS] | 23 µM | > 50 µM | 11.9 µM | – | – | – | – | – | – | AC50 [2]: > 10 µM
2 | Cc1ccc(-c2cc(C(F)(F)F)nn2-c2ccc(S(N)(=O)=O)cc2)cc1 [CELECOXIB] | – | – | > 30 µM | > 10 µM | > 10 µM | > 10 µM | > 10 µM | > 10 µM | – | AC50 [5]: > 10 µM; AC50 [2]: > 10 µM; AC50 [8]: > 10 µM
3 | O=C(CCNNC(=O)c1ccncc1)NCc1ccccc1 [NIALAMIDE] | > 30 µM | – | – | – | – | – | – | – | > 50 µM | –
4 | CC[C@H]1[C@@H](O)[C@@H]2[C@H](CC[C@]3(C)[C@@H]([C@H](C)CCC(=O)O)CC[C@@H]23)[C@@]2(C)CC[C@@H](O)C[C@@H]12 [OBETICHOLIC ACID] | > 30 µM | > 30 µM | – | – | – | – | – | – | > 30 µM | AC50 [13]: > 30 µM
5 | NCC(CC(=O)O)c1ccc(Cl)cc1 (stereo not drawn) [BACLOFEN] | – | – | – | > 10 µM | > 10 µM | > 10 µM | > 10 µM | > 10 µM | – | AC50 [14]: > 30 µM; AC50 [15]: > 30 µM; AC50 [5]: > 10 µM; AC50 [16]: > 30 µM
6 | CCCCCCOc1nsnc1C1=CCCN(C)C1 [XANOMELINE] | 1.8 µM | 10 µM | – | – | – | – | – | – | 19 µM | –
7 | O=C(O)c1cc(O)ccc1O [GENTISIC ACID] | > 30 µM | – | – | – | – | – | – | – | – | –
8 | Cc1c(C(=O)NN2CCCCC2)nn(-c2ccc(Cl)cc2Cl)c1-c1ccc(Cl)cc1 [RIMONABANT] | – | – | > 30 µM | > 10 µM | > 10 µM | > 10 µM | > 10 µM | > 10 µM | – | AC50 [14]: > 30 µM; AC50 [15]: > 30 µM; AC50 [16]: > 30 µM; AC50 [13]: > 30 µM
9 | CN(C)CC(c1ccc(O)cc1)C1(O)CCCCC1 (stereo not drawn) [DESVENLAFAXINE] | > 30 µM | – | – | – | – | – | – | – | – | –
